Patent US20240023546A1, “TRIGEMINAL CUE FOR WILDLIFE REPELLENTS” (The United States of America, as Represented by the …, priority 2022, published 2024)

System: cottontail rabbits
Assay: no-choice feeding experiment, repellency of cottontail rabbits from treated whole oats
Assay type: in vivo
Text: As used herein, the term “repellency” means the percent decrease in consumption (or occupancy) of a treated substrate relative to an untreated substrate. […] These values can be used to define a range, such as 50% to 75%, or 75% to 85%, or 25% to 50% decrease in consumption (or occupancy) of a treated substrate relative to an untreated substrate.
We conducted one no-choice feeding experiment for each unique combination of the trigeminal nerve irritant (methyl anthranilate) and the animal repellent (anthraquinone). For each feeding experiment, we used 24-30 cottontail rabbits to evaluate the efficacy of our repellent formulations. For each experiment, we offered untreated food for up to three days of the pretreatment and repellent-treated food during the 1-day test. For each experiment, our three test treatments (n=8−10 rabbits per treatment group) included food treated with (1) the methyl anthranilate alone, (2) the anthraquinone alone and (3) the combination of the methyl anthranilate and the anthraquinone.

| SMILES | % Repellency (rabbit, in vivo) [%] | % Repellency (whole oats treated with 5000 ppm MA alone, 1-day no-choice test) [%] | % Repellency (whole oats treated with 5000 ppm MA alone, 1-day no-choice test, listed as MA) [%] | % Repellency (whole oats treated with 10,000 ppm MA alone, 1-day no-choice test) [%] |
| --- | --- | --- | --- | --- |
| O=C1c2ccccc2C(=O)c2ccccc21 [anthraquinone, 9,10-anthraquinone] | 36 |  |  |  |
| COC(=O)c1ccccc1N [methyl anthranilate] |  | 6 | 6 | 62 |
